Data reported in ChEMBL document CHEMBL1201862, “PubChem BioAssay data set” (2004).
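Test compounds were applied to cells in 96-well plates for 48 hours at 5 doses. The concentration for 50% growth inhibition is given as GI50.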 Activity calls are given as the source filed them. Cut-off read from the data, not from the text of the source: active = GI50 up to about 1.1 µM and inactive = higher.

How the values were obtained:
Assay in all cases: NCI anticancer screen, dose series, 48 h
U-251 = system: U-251
ACHN = system: ACHN
K562 = system: K562
IGROV-1 = system: IGROV-1
CAKI-1 = system: CAKI-1
SK-OV-3 = system: SK-OV-3
HCC 2998 = system: HCC 2998
SN12C = system: SN12C
SF-539 = system: SF-539
HCT-116 = system: HCT-116
MOLT-4 = system: MOLT-4
SK-MEL-2 = system: SK-MEL-2
TK-10 = system: TK-10
HL-60 = system: HL-60
BT-549 = system: BT-549
RPMI-8226 = system: RPMI-8226
UACC-62 = system: UACC-62
UACC-257 = system: UACC-257
SNB-19 = system: SNB-19
SK-MEL-5 = system: SK-MEL-5

CC(=O)Nc1ccc2c3c(cc(O)c2c1)N(C(=O)CCCC(=O)Nc1ccc2c4c(cc(O)c2c1)N(C(=O)OC(C)(C)C)CC4CCl)CC3CCl (stereo not given)
GI50 (U-251): 0.841 µM (active) | GI50 (ACHN): 5.22 µM (inactive) | GI50 (K562): 1.22 µM (inactive) | GI50 (IGROV-1): 1.05 µM (active) | GI50 (CAKI-1): > 50 µM (inactive) | GI50 (SK-OV-3): 1.62 µM (inactive) | GI50 (HCC 2998): 0.771 µM (active) | GI50 (SN12C): 1.57 µM (inactive) | GI50 (SF-539): 1.42 µM (inactive) | GI50 (HCT-116): 0.851 µM (active) | GI50 (MOLT-4): 0.0815 µM (active) | GI50 (SK-MEL-2): 0.955 µM (active) | GI50 (TK-10): 7.6 µM (inactive) | GI50 (HL-60): 0.118 µM (active) | GI50 (BT-549): 0.881 µM (active) | GI50 (RPMI-8226): 5.69 µM (inactive) | GI50 (UACC-62): 0.998 µM (active) | GI50 (UACC-257): 1.04 µM (active) | GI50 (SNB-19): 1.24 µM (inactive) | GI50 (SK-MEL-5): 1.1 µM (active)

CN(C)c1ccc(-c2c(C#N)c(S)n(NS(=O)(=O)c3ccccc3)c(=O)c2C#N)cc1
GI50 (U-251): 24.1 µM (inactive) | GI50 (ACHN): 26.8 µM (inactive) | GI50 (K562): 30.7 µM (inactive) | GI50 (IGROV-1): 15.8 µM (inactive) | GI50 (CAKI-1): 23.8 µM (inactive) | GI50 (SK-OV-3): 59.6 µM (inactive) | GI50 (HCC 2998): 70.8 µM (inactive) | GI50 (SN12C): 20.2 µM (inactive) | GI50 (SF-539): 18.8 µM (inactive) | GI50 (HCT-116): 27.2 µM (inactive) | GI50 (MOLT-4): 16.6 µM (inactive) | GI50 (SK-MEL-2): 35.9 µM (inactive) | GI50 (TK-10): 19 µM (inactive) | GI50 (HL-60): 15.7 µM (inactive) | GI50 (BT-549): 21.1 µM (inactive) | GI50 (RPMI-8226): 13.9 µM (inactive) | GI50 (UACC-62): 20.5 µM (inactive) | GI50 (UACC-257): 45.8 µM (inactive) | GI50 (SNB-19): 48.1 µM (inactive) | GI50 (SK-MEL-5): 19.8 µM (inactive)

O=C1NC(=S)N(c2cccc3ccccc23)C(=O)/C1=C/c1c[nH]c2ccccc12
GI50 (U-251): 2.22 µM (inactive) | GI50 (ACHN): 2.37 µM (inactive) | GI50 (K562): 2.38 µM (inactive) | GI50 (IGROV-1): 2.03 µM (inactive) | GI50 (CAKI-1): 2.54 µM (inactive) | GI50 (SK-OV-3): 4.02 µM (inactive) | GI50 (HCC 2998): 1.87 µM (inactive) | GI50 (SN12C): 2.02 µM (inactive) | GI50 (SF-539): 2.23 µM (inactive) | GI50 (HCT-116): 2.01 µM (inactive) | GI50 (MOLT-4): 1.87 µM (inactive) | GI50 (SK-MEL-2): 1.69 µM (inactive) | GI50 (TK-10): 2.67 µM (inactive) | GI50 (HL-60): 2.21 µM (inactive) | GI50 (BT-549): 1.79 µM (inactive) | GI50 (RPMI-8226): 2.02 µM (inactive) | GI50 (UACC-62): 1.7 µM (inactive) | GI50 (UACC-257): 2.31 µM (inactive) | GI50 (SNB-19): 3.08 µM (inactive) | GI50 (SK-MEL-5): 1.66 µM (inactive)

O=[N+]([O-])c1ccc2c(/N=N/c3c(O)ccc4ccccc34)c(O)cc(S(=O)(=O)O)c2c1
GI50 (U-251): 3.45 µM (inactive) | GI50 (ACHN): 4.86 µM (inactive) | GI50 (K562): 9.16 µM (inactive) | GI50 (IGROV-1): 4.89 µM (inactive) | GI50 (CAKI-1): 4.86 µM (inactive) | GI50 (SK-OV-3): 36.4 µM (inactive) | GI50 (HCC 2998): 63.1 µM (inactive) | GI50 (SN12C): 25.6 µM (inactive) | GI50 (SF-539): 16.5 µM (inactive) | GI50 (HCT-116): 14.4 µM (inactive) | GI50 (MOLT-4): 1.39 µM (inactive) | GI50 (SK-MEL-2): 14.2 µM (inactive) | GI50 (TK-10): 37.1 µM (inactive) | GI50 (HL-60): 1.09 µM (active) | GI50 (BT-549): 26.9 µM (inactive) | GI50 (RPMI-8226): 8.26 µM (inactive) | GI50 (UACC-62): 2.51 µM (inactive) | GI50 (UACC-257): 20 µM (inactive) | GI50 (SNB-19): 15 µM (inactive) | GI50 (SK-MEL-5): 11.2 µM (inactive)

COc1ccccc1CCN1CCN(CCCc2ccccc2)CC1
GI50 (U-251): > 100 µM (inactive) | GI50 (ACHN): > 100 µM (inactive) | GI50 (K562): 34.5 µM (inactive) | GI50 (IGROV-1): > 100 µM (inactive) | GI50 (CAKI-1): 91 µM (inactive) | GI50 (SK-OV-3): > 100 µM (inactive) | GI50 (HCC 2998): 47.3 µM (inactive) | GI50 (SN12C): 83.9 µM (inactive) | GI50 (SF-539): > 100 µM (inactive) | GI50 (HCT-116): 33 µM (inactive) | GI50 (MOLT-4): 89.7 µM (inactive) | GI50 (SK-MEL-2): > 100 µM (inactive) | GI50 (TK-10): 75.5 µM (inactive) | GI50 (HL-60): 65.9 µM (inactive) | GI50 (BT-549): > 100 µM (inactive) | GI50 (RPMI-8226): 39.4 µM (inactive) | GI50 (UACC-62): > 100 µM (inactive) | GI50 (UACC-257): 60.4 µM (inactive) | GI50 (SNB-19): > 100 µM (inactive) | GI50 (SK-MEL-5): 22.1 µM (inactive)

COc1ccc(C(C)NNC(=O)c2cc[n+]([BH2-]C#N)cc2)cc1OC (stereo not given)
GI50 (U-251): > 100 µM (inactive) | GI50 (ACHN): > 100 µM (inactive) | GI50 (K562): > 100 µM (inactive) | GI50 (IGROV-1): > 100 µM (inactive) | GI50 (CAKI-1): > 100 µM (inactive) | GI50 (SK-OV-3): 54.3 µM (inactive) | GI50 (HCC 2998): > 100 µM (inactive) | GI50 (SN12C): > 100 µM (inactive) | GI50 (SF-539): > 100 µM (inactive) | GI50 (HCT-116): > 100 µM (inactive) | GI50 (MOLT-4): > 100 µM (inactive) | GI50 (SK-MEL-2): > 100 µM (inactive) | GI50 (TK-10): > 100 µM (inactive) | GI50 (HL-60): > 100 µM (inactive) | GI50 (BT-549): > 100 µM (inactive) | GI50 (RPMI-8226): > 100 µM (inactive) | GI50 (UACC-62): > 100 µM (inactive) | GI50 (UACC-257): > 100 µM (inactive) | GI50 (SNB-19): > 100 µM (inactive) | GI50 (SK-MEL-5): > 100 µM (inactive)

Cc1ccc(C(=O)Nc2ccc(CP(=O)(O)O)cc2CP(=O)(O)O)cc1N
GI50 (U-251): > 100 µM (inactive) | GI50 (ACHN): > 100 µM (inactive) | GI50 (K562): > 100 µM (inactive) | GI50 (IGROV-1): > 100 µM (inactive) | GI50 (CAKI-1): > 100 µM (inactive) | GI50 (SK-OV-3): > 100 µM (inactive) | GI50 (HCC 2998): > 100 µM (inactive) | GI50 (SN12C): > 100 µM (inactive) | GI50 (SF-539): > 100 µM (inactive) | GI50 (HCT-116): > 100 µM (inactive) | GI50 (MOLT-4): > 100 µM (inactive) | GI50 (SK-MEL-2): > 100 µM (inactive) | GI50 (TK-10): > 100 µM (inactive) | GI50 (HL-60): > 100 µM (inactive) | GI50 (BT-549): > 100 µM (inactive) | GI50 (RPMI-8226): > 100 µM (inactive) | GI50 (UACC-62): > 100 µM (inactive) | GI50 (UACC-257): > 100 µM (inactive) | GI50 (SNB-19): > 100 µM (inactive) | GI50 (SK-MEL-5): > 100 µM (inactive)

CCN(CC)CCOc1ccc(N2Cc3ccccc3C2=O)cc1
GI50 (U-251): > 10 µM (inactive) | GI50 (ACHN): > 10 µM (inactive) | GI50 (K562): > 10 µM (inactive) | GI50 (IGROV-1): > 10 µM (inactive) | GI50 (CAKI-1): > 10 µM (inactive) | GI50 (SK-OV-3): > 10 µM (inactive) | GI50 (HCC 2998): > 10 µM (inactive) | GI50 (SN12C): > 10 µM (inactive) | GI50 (SF-539): > 10 µM (inactive) | GI50 (HCT-116): > 10 µM (inactive) | GI50 (MOLT-4): > 10 µM (inactive) | GI50 (SK-MEL-2): > 10 µM (inactive) | GI50 (TK-10): > 10 µM (inactive) | GI50 (HL-60): > 10 µM (inactive) | GI50 (BT-549): > 10 µM (inactive) | GI50 (RPMI-8226): > 10 µM (inactive) | GI50 (UACC-62): > 10 µM (inactive) | GI50 (UACC-257): > 10 µM (inactive) | GI50 (SNB-19): > 10 µM (inactive) | GI50 (SK-MEL-5): > 10 µM (inactive)

CC1CNC(NS(=O)(=O)c2cc(C(=O)Nc3ccc(Cl)cc3)c(Cl)cc2S)=NN1 (stereo not given)
GI50 (U-251): 37.2 µM (inactive) | GI50 (ACHN): 40 µM (inactive) | GI50 (K562): 31.1 µM (inactive) | GI50 (IGROV-1): 36.1 µM (inactive) | GI50 (CAKI-1): 51.5 µM (inactive) | GI50 (SK-OV-3): 59.4 µM (inactive) | GI50 (HCC 2998): 19.1 µM (inactive) | GI50 (SN12C): 38.8 µM (inactive) | GI50 (SF-539): 30.8 µM (inactive) | GI50 (HCT-116): 27 µM (inactive) | GI50 (MOLT-4): 52.8 µM (inactive) | GI50 (SK-MEL-2): 28.9 µM (inactive) | GI50 (TK-10): 81.7 µM (inactive) | GI50 (HL-60): > 100 µM (inactive) | GI50 (BT-549): 53.7 µM (inactive) | GI50 (RPMI-8226): 28.9 µM (inactive) | GI50 (UACC-62): 29.2 µM (inactive) | GI50 (UACC-257): 54.2 µM (inactive) | GI50 (SNB-19): 35.1 µM (inactive) | GI50 (SK-MEL-5): 14.1 µM (inactive)

COCCc1c(C)c(C#N)c2n(C)c3ccccc3n2c1=O
GI50 (U-251): > 10 µM (inactive) | GI50 (ACHN): > 10 µM (inactive) | GI50 (K562): 0.566 µM (active) | GI50 (IGROV-1): > 10 µM (inactive) | GI50 (CAKI-1): > 10 µM (inactive) | GI50 (SK-OV-3): > 10 µM (inactive) | GI50 (HCC 2998): > 10 µM (inactive) | GI50 (SN12C): > 10 µM (inactive) | GI50 (SF-539): > 10 µM (inactive) | GI50 (HCT-116): > 10 µM (inactive) | GI50 (MOLT-4): > 10 µM (inactive) | GI50 (SK-MEL-2): > 10 µM (inactive) | GI50 (TK-10): > 10 µM (inactive) | GI50 (HL-60): 0.00575 µM (active) | GI50 (BT-549): > 10 µM (inactive) | GI50 (RPMI-8226): > 10 µM (inactive) | GI50 (UACC-62): > 10 µM (inactive) | GI50 (UACC-257): > 10 µM (inactive) | GI50 (SNB-19): > 10 µM (inactive) | GI50 (SK-MEL-5): > 10 µM (inactive)
